Entries after “also recorded” stand apart in the source; their conditions may differ.
Key:
α-synuclein (α-syn) = biological target: T1, α-synuclein (α-syn) (Homo sapiens, UniProt P37840); test: Thioflavin T (ThT) fluorescence assay of α-syn fibril formation; assay type: biochemical; conditions: compound 3.125-100 μM, α-syn 2 μM, plateau phase
T1 construct: purchased rPeptide, LLC (Watkinsville, GA)

α-syn = α-syn (Homo sapiens, UniProt P37840); test: PICUP assay of α-syn oligomerization; assay type: biochemical; design: purchased rPeptide, LLC (Watkinsville, GA); conditions: for α-syn oligomerization (PICUP crosslinking): compound 50 μM; for α-syn oligomer formation, PICUP dose-response: compound 3.125-50 μM
Method: (§1) To force the oligomerization by cross-linking, α-syn (from Rpeptide, LLC) and tau isoform 2N4R were diluted in 10 mM phosphate buffer (pH 7.4) to reach a final concentration of 10 μM [27]. Different compounds were added to the protein solution at a final concentration of 50 μM, resulting in a molar ratio of 1:5. To confirm the gradual effect of the compounds on the inhibition of α-syn oligomerization, compounds were tested at final concentration of 3.125, 6.25, 12.5, 25, and 50 μM. The controls consisted of samples without light exposition, without Ru(bpy), and without compound (i.e., 0.125% DMSO). The cross-linking reaction was initiated by the addition of 2 μL of Ru(bpy) (300 μM final concentration) and 2 μL ammonium persulfate (6 mM final concentration). Samples were irradiated immediately. Light exposition was of 1 second duration for ca-syn and 3 second duration for tau isoform 2N4R, with a 53 W (120 V) incandescent lamp installed in a homemade dark-box. Each tube contained a final volume of 20 μL. After irradiation, 8.3 μL. of Lammeli loading buffer containing 15% β-mercaptoethanol was immediately added to the solution, followed by incubation at 95° C. for 10 minutes. The cross-linked samples were separated on a 16% SDS-Page gel and visualized by Coomassie blue staining.
(§2) One end point used to verify the propensity of misfolded protein in the drug discovery field is the inhibition of oligomer formation. The photo-induced cross-linking of unmodified proteins (PICUP) assay was used to investigate α-syn (60 μM) and tau isoform 2N4R (6 μM) oligomerization in the presence of eight amide compounds (2, 4, 5, 6, 7, 8, 13, and 17 at 50 μM, i.e., ~molar ratio 1:8 for tau). After being subjected to short light exposure, α-syn and tau were cross-linked and Coomassie-stained resolved as a higher molecular weight compared to control (0.125% DMSO). […] Compound 13 was used as a negative control for the α-syn PICUP.
(§3) PICUP assays were performed with different concentrations (50 μM, 25 μM, 12.5 μM, 6.25 μM, 3.125 μM; control=0.125% DMSO) for each lead compound.

tau isoform 2N4R = biological target: T2, tau isoform 2N4R (Homo sapiens, UniProt P10636); test: PICUP assay of tau isoform 2N4R oligomerization; assay type: biochemical; conditions: compound 50 μM
T2 construct: made in house; host or cells: E. coli BL21 (DE3), vector pRK172
Method: as §1, §2, §3

[1] = Mouse microsomal stability; assay type: in vitro ADME
[2] = Brain and plasma concentration after administration; assay type: in vivo; conditions: 1 mg/kg
Method: For compound 8, the brain concentration and plasma concentration ratio is equal to more than 1 for the 3 time points (0.08, 0.5 and 1 hour) where the compound was detected, which is adequate.

T2 sequence (P10636 1-441 isoform P10636-8): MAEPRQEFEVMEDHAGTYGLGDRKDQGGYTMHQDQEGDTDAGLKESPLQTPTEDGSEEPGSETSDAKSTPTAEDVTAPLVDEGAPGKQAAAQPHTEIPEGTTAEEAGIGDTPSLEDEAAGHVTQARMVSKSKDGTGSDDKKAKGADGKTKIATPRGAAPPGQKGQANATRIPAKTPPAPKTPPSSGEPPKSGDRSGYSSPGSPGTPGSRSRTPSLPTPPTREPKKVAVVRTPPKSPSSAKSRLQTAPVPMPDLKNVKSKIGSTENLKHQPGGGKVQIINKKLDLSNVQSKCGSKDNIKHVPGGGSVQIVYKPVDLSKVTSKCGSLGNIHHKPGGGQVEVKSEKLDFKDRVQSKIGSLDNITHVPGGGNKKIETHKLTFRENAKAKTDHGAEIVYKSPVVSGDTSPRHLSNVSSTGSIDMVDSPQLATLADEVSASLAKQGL

| α-syn oligomerization (PICUP crosslinking) (α-syn) | Mouse microsomal stability [1] | Half-life [2] | Kp ([2]; brain and plasma, 0.08, 0.5 and 1 hour, read-out: brain concentration and plasma concentration ratio) | SMILES | α-syn fibrillization, ThT dose-response (α-synuclein (α-syn)) | α-syn oligomer formation, PICUP dose-response (α-syn) | tau isoform 2N4R oligomerization (PICUP crosslinking) (tau isoform 2N4R) | detection of compound over time [2] |
| --- | --- | --- | --- | --- | --- | --- | --- | --- |
| effectively prevented this crosslinking |  |  |  | O=C(Nc1cccc2[nH]ccc12)c1ccccc1 [Compound 2, N-(1H-indol-4-yl)benzamide] | reduction in protein fibrillization when subjected to higher concentrations | prevented α-syn oligomer formation in a dose-dependent manner | effectively prevented this crosslinking; also recorded: prevented tau 2N4R oligomer formation |  |
| effectively prevented this crosslinking | 70% | presumed to be short | > 1 | O=C(Nc1cccc2[nH]ccc12)c1ccc(F)cc1 [Compound 8, 4-fluoro-N-(1H-indol-4-yl)benzamide] | reduction in protein fibrillization when subjected to higher concentrations | prevented α-syn oligomer formation in a dose-dependent manner | effectively prevented this crosslinking; also recorded: prevented tau 2N4R oligomer formation | not detected beyond the time point of 60 min |

Reference: US20260274794A1, “COMPOUNDS, COMPOSITIONS, AND METHOD OF INHIBITING TAU PROTEIN AND ALPHASYNUCLEIN AGGREGATION” (Purdue Research Foundation, priority 2023, published 2026)
